Laboratory results taken from US20110178170A1, “GRISEOFULVIN ANALOGUES FOR THE TREATMENT OF CANCER BY INHIBITION OF CENTROSOMAL CLUSTERING” (DKFZ Deutsches Krebsforschungszentrum, priority 2007, published 2011).

Experiments:
[1] = tested on: cancer cells; conditions: compared with griseofulvin; cited from earlier work
[2] = tested on: tumor cell lines; test: cell-based screening for inhibition of centrosomal clustering (multipolar mitotic spindles); set-up: species or system human; conditions: several different tumor cell lines; screening of Penicillium extracts
Description: Supernumerary centrosomes do almost exclusively occur in a wide variety of neoplastic disorders but not in non-transformed cells. Therefore, inhibition of centrosomal clustering with consequential induction of multipolar spindles and subsequent cell death would specifically target tumor cells with no impact on normal cells with a regular centrosome content. To identify cell-permeable small molecules that inhibit centrosomal clustering in cells with supernumerary centrosomes, we developed a cell-based screening strategy founded on the visualization of microtubules and chromatin.
Therefore, we decided to screen a fungal extract library for compounds inhibiting centrosomal clustering. The fungal extracts were selected based on a chemotaxonomic screening approach, in order to increase the chemodiversity to be tested.
The FIGS. 1 to 12 give representative examples of compounds, which have been prepared in the framework of the present invention, together with their activity, which has been determined as described below.
Cell Culture. All cell lines were cultured in Dulbecco's modified Eagle's Medium (DMEM; PAA Laboratories, Pasching, Austria) supplemented with 10% FCS (PAA). […]
Immunofluorescence. […] Immunostained cells were examined using a Zeiss Axiovert 200 M fluorescence microscope (Göttingen, Germany). […]

| SMILES | inhibiting effect on cancer cells relative to griseofulvin [1] | inhibition of centrosome coalescence [2] |
| --- | --- | --- |
| CCCOC1=CC(=O)C[C@@H](C)[C@]12Oc1c(Cl)c(OC)cc(OC)c1C2=O | stronger inhibiting effect on cancer cells than griseofulvin itself |  |
| COC1=CC(=O)C[C@@H](C)[C@]12Oc1c(Cl)c(OC)cc(OC)c1C2=O [griseofulvin, (2-5-trans)-7-chloro-2,4,6-trimethoxy-6-methylspiro-[benzofuran-2(3H), 1-(2)-cyclohexene]-3,4-dione] |  | inhibitor of centrosome coalescence |
